Laboratory results as given in patent US8969055B2 (priority 2009, dated 2015).
Like-named read-outs stand apart in the source and are kept apart here.

Legend:
4KO E. coli strain = details: for E. coli Growth Rate (μ): 4KO E. coli, BFM + betaine, 30° C.
Protocol: From a frozen vial, 25 mL of seed culture was grown in Difco LB broth, Miller medium, purchased from BD Laboratories (Becton & Dickinson and Company, Sparks, Md., 21152, USA) at 30° C., 200 RPM. […] Samples were withdrawn at defined time points to monitor biomass growth as measured by OD600. Growth rates were calculated from the biomass time profiles by fitting exponential growth rate equations.

[1] = Example 3 fermentation, oleyl alcohol
Protocol: Filter sterilized solutions of ampicillin, thiamine hydrochloride, and glucose were added to the fermentor medium, post sterilization, to a final concentration of 100 mg/L, 5 mg/L and 20 g/L respectively. Fermentations were run using a 1 L autoclavable bioreactor, Bio Console ADI 1025 (Applikon, Inc, Holland) with a working volume of 900 mL. The temperature was maintained at 30° C. during the entire fermentation and the pH was maintained at 6.8 using ammonium hydroxide. Following inoculation of the sterile fermentation medium with seed culture (2-10 vol %), the fermentor was operated aerobically at a 30% dissolved oxygen (DO) set point with 0.3 vvm of air flow by automatic control of the agitation rate (rpm). […] Four hours post induction, fermentation conditions were switched to microaerobic conditions by decreasing the airflow to 0.13 slpm and setting the DO set point to 3-5%. […] Glucose was added as a bolus (50 wt % stock solution) to the fermentor on a need basis to keep levels of glucose between 20 g/L and 2 g/L.
Glucose levels were monitored using HPLC and YSI as described above herein.

[2] = oleyl alcohol/BFM, 30° C.
Description: The aqueous and organic phases in each flask were separated by decantation.
Each data point corresponding to a specified level of electrolyte as shown in Table 3 and Table 4 was repeated twice and values for Kp reported as the average of the two flasks.

[3] = Activity of enzyme expressed from sadB gene in cell-free extracts of Mach1/pTrc99a::sadB; assay type: biochemical, Achromobacter xylosoxidans; details: isobutyraldehyde as the standard
Protocol: The sadB coding region was then cloned into the vector pTrc99a (Amann et al., Gene 69: 301-315, 1988). The pCR4Blunt::sadB was digested with EcoRI, releasing the sadB fragment, which was ligated with EcoRI-digested pTrc99a to generate pTrc99a::sadB. This plasmid was transformed into E. coli Mach 1 cells and the resulting transformant was named Mach1/pTrc99a::sadB. The activity of the enzyme expressed from the sadB gene in these cells was determined to be 3.5 mmol/min/mg protein in cell-free extracts when analyzed using isobutyraldehyde as the standard.

**Q.** With `O=S(=O)([O-])[O-].[Na+].[Na+]` [Na2SO4, Sodium sulfate] as the molecule, how does the “drop in growth rate” value (4KO E. coli strain; 1M salt concentration) read?
**A.** greater than 80%

**Q.** And the “E. coli Growth Rate (μ)” value (4KO E. coli strain; Na2SO4 added 0.03 mole/L, total salts 0.17 moles/L)?
**A.** 0.79 h⁻¹

**Q.** And the “E. coli Growth Rate (μ)” value (4KO E. coli strain; Na2SO4 added 0.07 mole/L, total salts 0.21 moles/L)?
**A.** 0.79 h⁻¹

**Q.** What about the “E. coli Growth Rate (μ)” value (4KO E. coli strain; Na2SO4 added 0.15 mole/L, total salts 0.29 moles/L) of the same molecule?
**A.** 0.79 h⁻¹

**Q.** And the “E. coli Growth Rate (μ)” value (4KO E. coli strain; Na2SO4 added 0.22 mole/L, total salts 0.36 moles/L)?
**A.** 0.74 h⁻¹

**Q.** And the “E. coli Growth Rate (μ)” value (4KO E. coli strain; Na2SO4 added 0.29 mole/L, total salts 0.43 moles/L)?
**A.** 0.69 h⁻¹

**Q.** What about the “E. coli Growth Rate (μ)” value (4KO E. coli strain; Na2SO4 added 0.44 mole/L, total salts 0.58 moles/L) of the same molecule?
**A.** 0.60 h⁻¹

**Q.** And the “E. coli Growth Rate (μ)” value (4KO E. coli strain; Na2SO4 added 0.67 mole/L, total salts 0.81 moles/L)?
**A.** 0.55 h⁻¹

**Q.** What about the “E. coli Growth Rate (μ)” value (4KO E. coli strain; Na2SO4 added 1.00 mole/L, total salts 1.14 moles/L) of the same molecule?
**A.** 0.14 h⁻¹

**Q.** What about the “E. coli Growth Rate (μ)” value (4KO E. coli strain; Na2SO4 added 1.33 mole/L, total salts 1.47 moles/L) of the same molecule?
**A.** Negligible growth

**Q.** What about the “E. coli Growth Rate (μ)” value (4KO E. coli strain; Na2SO4 added 2.00 mole/L, total salts 2.14 moles/L) of the same molecule?
**A.** Negligible Growth

**Q.** And the “loss of growth rate compared to no electrolyte control” value (4KO E. coli strain; about 0.67 M Na2SO4 (total salt level of 0.81 M))?
**A.** 30%

**Q.** Which “Kp [Conc in OA phase]/[Conc in Aq Phase]” value ([1]; Na2SO4 added 0 moles/L, total salts 0.05 moles/L) does the source give for Isobutanol here?
**A.** 3.1

**Q.** And the “Kp [Conc in OA phase]/[Conc in Aq Phase]” value ([1]; Na2SO4 added 0.28 moles/L, total salts 0.33 moles/L)?
**A.** 4.5

**Q.** And the “Kp [Conc in OA phase]/[Conc in Aq Phase]” value ([1]; Na2SO4 added 0.42 moles/L, total salts 0.47 moles/L)?
**A.** 5.4

**Q.** What about the Kp ([2]; Na2SO4 added 0.00 moles/L, total salts 0.14 moles/L) of the same molecule?
**A.** 4.80

**Q.** What about the Kp ([2]; Na2SO4 added 0.03 moles/L, total salts 0.17 moles/L) of the same molecule?
**A.** 5.03

**Q.** And the Kp ([2]; Na2SO4 added 0.07 moles/L, total salts 0.21 moles/L)?
**A.** 5.25

**Q.** And the Kp ([2]; Na2SO4 added 0.15 moles/L, total salts 0.29 moles/L)?
**A.** 5.78

**Q.** What about the Kp ([2]; Na2SO4 added 0.22 moles/L, total salts 0.36 moles/L) of the same molecule?
**A.** 6.37

**Q.** And the Kp ([2]; Na2SO4 added 0.29 moles/L, total salts 0.43 moles/L)?
**A.** 7.12

**Q.** And the Kp ([2]; Na2SO4 added 0.44 moles/L, total salts 0.58 moles/L)?
**A.** 8.34

**Q.** And the Kp ([2]; Na2SO4 added 0.67 moles/L, total salts 0.81 moles/L)?
**A.** 10.50

**Q.** What about the Kp ([2]; Na2SO4 added 1.00 moles/L, total salts 1.14 moles/L) of the same molecule?
**A.** 15.95

**Q.** What about the Kp ([2]; Na2SO4 added 1.33 moles/L, total salts 1.47 moles/L) of the same molecule?
**A.** 24.68

**Q.** What about the Kp ([2]; Na2SO4 added 2.00 moles/L, total salts 2.14 moles/L) of the same molecule?
**A.** 60.99

**Q.** And the Kp ([2]; NaCl added 0.00 moles/L, total salt 0.14 moles/L)?
**A.** 4.87

**Q.** What about the Kp ([2]; NaCl added 0.01 moles/L, total salt 0.15 moles/L) of the same molecule?
**A.** 4.87

**Q.** And the Kp ([2]; NaCl added 0.04 moles/L, total salt 0.18 moles/L)?
**A.** 4.89

**Q.** What about the Kp ([2]; NaCl added 0.07 moles/L, total salt 0.21 moles/L) of the same molecule?
**A.** 4.95

**Q.** What about the Kp ([2]; NaCl added 0.11 moles/L, total salt 0.25 moles/L) of the same molecule?
**A.** 5.00

**Q.** And the Kp ([2]; NaCl added 0.14 moles/L, total salt 0.28 moles/L)?
**A.** 5.00

**Q.** What about the Kp ([2]; NaCl added 0.21 moles/L, total salt 0.35 moles/L) of the same molecule?
**A.** 5.22

**Q.** And the Kp ([2]; NaCl added 0.33 moles/L, total salt 0.47 moles/L)?
**A.** 5.04

**Q.** What about the Kp ([2]; NaCl added 0.67 moles/L, total salt 0.81 moles/L) of the same molecule?
**A.** 5.91

**Q.** What about the Kp ([2]; NaCl added 1.00 moles/L, total salt 1.14 moles/L) of the same molecule?
**A.** 6.88

**Q.** What about the Kp ([2]; NaCl added 1.33 moles/L, total salt 1.47 moles/L) of the same molecule?
**A.** 8.06

B1: enzyme expressed from the sadB gene: butanol dehydrogenase from Achromobacter xylosoxidans (protein SEQ ID NO: 10) (protein)
chain: MKALVYHGDHKISLEDKPKPTLQKPTDVVVRVLKTTICGTDLGIYKGKNPEVADGRILGHEGVGVIEEVGESVTQFKKGDKVLISCVTSCGSCDYCKKQLYSHCRDGGWILGYMIDGVQAEYVRIPHADNSLYKIPQTIDDEIAVLLSDILPTGHEIGVQYGNVQPGDAVAIVGAGPVGMSVLLTAQFYSPSTIIVIDMDENRLQLAKELGATHTINSGTENVVEAVHRIAAEGVDVAIEAVGIPATWDICQEIVKPGAHIANVGVHGVKVDFEIQKLWIKNLTITTGLVNTNTTPMLMKVASTDKLPLKKMITHRFELAEIEHAYQVFLNGAKEKAMKIILSNAGAA
modifications: Achromobacter xyloxidans
**Q.** For B1, which “activity of the enzyme” value [3] is on record?
**A.** 3.5 mmol/min/mg protein
